Key:
Assay type in all cases: cell-based
[1] = biological target: human TLR7 (Homo sapiens (Human), UniProt Q9NYK1); assay: TLR7 inhibition reporter assay (HEK-Blue, SEAP); details: HEK-Blue cells overexpressing human TLR7, gardiquimod 7.5 μM stimulation
Outline: (§1)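 Reporter cells, NF-κB/AP-1-driven SEAP; cmpd 0.05 nM–50 μM final, 30 min RT pre-treat; stim gardiquimod 7.5 μM (TLR7), R848 15.9 μM (TLR8), ODN2006 5 nM (TLR9); 22 h 37 °C; % inhibition of SEAP signal.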

[2] = biological target: human TLR9 (Homo sapiens (Human), UniProt Q9NR96); assay: TLR9 inhibition reporter assay (HEK-Blue, SEAP); details: HEK-Blue cells overexpressing human TLR9, ODN2006 5 nM stimulation
Chain of human TLR9 (Q9NR96 26-1032): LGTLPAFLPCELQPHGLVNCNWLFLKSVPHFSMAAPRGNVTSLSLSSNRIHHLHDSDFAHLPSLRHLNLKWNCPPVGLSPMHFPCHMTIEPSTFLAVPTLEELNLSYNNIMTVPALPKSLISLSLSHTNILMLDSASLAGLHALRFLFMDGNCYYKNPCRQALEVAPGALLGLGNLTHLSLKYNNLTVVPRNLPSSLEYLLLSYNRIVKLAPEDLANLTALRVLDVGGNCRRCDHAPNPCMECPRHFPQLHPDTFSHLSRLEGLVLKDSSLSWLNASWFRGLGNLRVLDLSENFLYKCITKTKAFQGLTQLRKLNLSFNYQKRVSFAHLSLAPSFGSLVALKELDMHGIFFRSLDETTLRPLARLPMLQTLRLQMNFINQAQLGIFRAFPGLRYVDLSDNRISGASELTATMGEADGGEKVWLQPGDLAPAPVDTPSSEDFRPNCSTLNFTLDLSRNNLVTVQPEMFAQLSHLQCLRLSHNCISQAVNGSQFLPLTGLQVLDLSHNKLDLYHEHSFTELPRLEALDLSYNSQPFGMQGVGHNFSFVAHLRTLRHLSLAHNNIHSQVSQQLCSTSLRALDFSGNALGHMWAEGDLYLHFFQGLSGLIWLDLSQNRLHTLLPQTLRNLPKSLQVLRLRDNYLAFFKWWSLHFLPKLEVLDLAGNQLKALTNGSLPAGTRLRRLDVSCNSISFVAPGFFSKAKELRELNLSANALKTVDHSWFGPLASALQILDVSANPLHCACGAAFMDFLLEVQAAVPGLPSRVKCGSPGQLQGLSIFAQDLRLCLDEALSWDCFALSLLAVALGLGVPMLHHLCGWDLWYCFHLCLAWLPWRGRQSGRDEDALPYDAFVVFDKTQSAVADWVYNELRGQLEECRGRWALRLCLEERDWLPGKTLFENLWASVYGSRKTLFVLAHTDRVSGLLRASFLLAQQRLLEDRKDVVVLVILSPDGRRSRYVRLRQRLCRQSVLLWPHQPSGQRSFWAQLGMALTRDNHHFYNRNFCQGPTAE
Outline: as §1

[3] = biological target: human TLR8 (Homo sapiens (Human), UniProt Q9NR97); assay: TLR8 inhibition reporter assay (HEK-Blue, SEAP); details: HEK-Blue cells overexpressing human TLR8, R848 15.9 μM stimulation
Chain of human TLR8 (Q9NR97 27-1041): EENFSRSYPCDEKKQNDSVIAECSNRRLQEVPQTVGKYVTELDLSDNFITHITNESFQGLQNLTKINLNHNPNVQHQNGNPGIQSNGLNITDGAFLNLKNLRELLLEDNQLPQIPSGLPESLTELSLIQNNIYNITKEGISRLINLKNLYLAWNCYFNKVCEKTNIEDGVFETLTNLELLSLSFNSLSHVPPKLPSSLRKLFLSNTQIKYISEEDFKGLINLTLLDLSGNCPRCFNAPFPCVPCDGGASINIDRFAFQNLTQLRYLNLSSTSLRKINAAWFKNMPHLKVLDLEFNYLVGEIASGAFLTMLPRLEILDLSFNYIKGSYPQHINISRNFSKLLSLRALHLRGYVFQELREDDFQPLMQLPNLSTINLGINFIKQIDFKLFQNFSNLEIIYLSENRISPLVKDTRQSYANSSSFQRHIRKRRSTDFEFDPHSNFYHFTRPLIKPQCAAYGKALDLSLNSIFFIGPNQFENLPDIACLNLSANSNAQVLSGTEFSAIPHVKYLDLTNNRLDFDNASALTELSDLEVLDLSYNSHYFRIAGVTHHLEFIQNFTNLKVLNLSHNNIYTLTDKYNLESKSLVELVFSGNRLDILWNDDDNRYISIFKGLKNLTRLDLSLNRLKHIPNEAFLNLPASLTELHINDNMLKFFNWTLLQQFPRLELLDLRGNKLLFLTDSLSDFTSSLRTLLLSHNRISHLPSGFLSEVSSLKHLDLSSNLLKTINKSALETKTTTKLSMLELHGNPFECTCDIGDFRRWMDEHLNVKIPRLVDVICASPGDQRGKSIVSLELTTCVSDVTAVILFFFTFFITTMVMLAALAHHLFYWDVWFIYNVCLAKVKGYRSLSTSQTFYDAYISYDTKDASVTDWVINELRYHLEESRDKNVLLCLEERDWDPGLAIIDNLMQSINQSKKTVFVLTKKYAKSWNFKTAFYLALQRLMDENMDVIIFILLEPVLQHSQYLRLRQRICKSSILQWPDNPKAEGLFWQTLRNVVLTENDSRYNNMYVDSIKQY
Outline: as §1

Chain of human TLR7 (Q9NYK1 27-1049): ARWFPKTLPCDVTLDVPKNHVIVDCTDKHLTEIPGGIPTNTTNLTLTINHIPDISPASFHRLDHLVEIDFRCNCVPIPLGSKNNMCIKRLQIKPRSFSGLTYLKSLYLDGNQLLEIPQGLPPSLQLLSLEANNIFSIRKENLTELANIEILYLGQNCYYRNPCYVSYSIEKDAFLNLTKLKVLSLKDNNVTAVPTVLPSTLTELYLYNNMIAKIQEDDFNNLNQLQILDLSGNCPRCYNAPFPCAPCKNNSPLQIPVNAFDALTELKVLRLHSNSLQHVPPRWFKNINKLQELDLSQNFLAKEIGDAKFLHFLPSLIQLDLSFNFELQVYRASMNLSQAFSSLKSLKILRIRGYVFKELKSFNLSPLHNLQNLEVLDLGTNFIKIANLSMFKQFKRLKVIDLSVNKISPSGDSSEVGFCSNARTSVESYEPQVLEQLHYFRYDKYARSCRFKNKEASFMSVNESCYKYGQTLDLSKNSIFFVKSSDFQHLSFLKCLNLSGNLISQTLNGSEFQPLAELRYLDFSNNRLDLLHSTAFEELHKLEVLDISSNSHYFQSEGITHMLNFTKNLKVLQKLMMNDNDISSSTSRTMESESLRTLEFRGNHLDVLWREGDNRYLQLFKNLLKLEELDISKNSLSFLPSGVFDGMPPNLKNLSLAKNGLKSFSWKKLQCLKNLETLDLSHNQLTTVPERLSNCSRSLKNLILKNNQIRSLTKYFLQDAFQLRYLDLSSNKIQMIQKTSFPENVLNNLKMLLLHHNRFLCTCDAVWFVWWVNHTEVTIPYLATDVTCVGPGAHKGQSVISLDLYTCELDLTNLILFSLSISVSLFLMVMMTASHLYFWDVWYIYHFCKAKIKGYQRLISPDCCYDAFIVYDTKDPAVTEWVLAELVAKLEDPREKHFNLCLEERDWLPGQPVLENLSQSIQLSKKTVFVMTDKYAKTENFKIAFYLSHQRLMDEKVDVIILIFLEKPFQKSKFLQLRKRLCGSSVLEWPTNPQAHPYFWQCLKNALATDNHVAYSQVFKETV

Compound | IC50 [1] | IC50 [2] | IC50 [3]
CC(C)c1c(-c2ccnc3[nH]ncc23)[nH]c2ccc(-c3noc(C[C@@H]4CCCN4)n3)cc12 [Example 439, (S)-3-(3-isopropyl-2-(1H-pyrazolo[3,4-b]pyridin-4-yl)-1H-indol-5-yl)-5-(pyrrolidin-2-ylmethyl)-1,2,4-oxadiazole] | 134 nM | 2140 nM | 3.3 nM
CC(C)c1c(-c2ccnc3[nH]ncc23)[nH]c2ccc(-c3nnc(CN4CCNC(=O)C4)o3)cc12 [Example 156, 4-((5-(3-isopropyl-2-(1H-pyrazolo[3,4-b]pyridin-4-yl)-1H-indol-5-yl)-1,3,4-oxadiazol-2-yl)methyl)piperazin-2-one] | 1410 nM | > 50000 nM | 212 nM
Cc1cc(-c2[nH]c3ccc(-c4cc5c(s4)CN(Cc4c[nH]c(C)n4)CC5)cc3c2C(C)C)cc(C)n1 [Example 343, 2-(2-(2,6-dimethylpyridin-4-yl)-3-isopropyl-1H-indol-5-yl)-6-((2-methyl-1H-imidazol-4-yl)methyl)-4,5,6,7-tetrahydrothieno[2,3-c]pyridine] | 3.7 nM | 146 nM | 1.3 nM
Cc1cc(-c2[nH]c3ccc(-c4nnc(C5CCCN(C(C)C)C5)[nH]4)cc3c2C(C)C)ccn1 (stereo not drawn) [Example 204, 3-isopropyl-5-(5-(1-isopropylpiperidin-3-yl)-4H-1,2,4-triazol-3-yl)-2-(2-methylpyridin-4-yl)-1H-indole] | 67 nM | 218 nM | 5.7 nM
COc1ccc(-c2[nH]c3ccc(-c4cccc(C(=O)N5CC6CNCC6C5)c4)cc3c2C(C)C)cc1OC (stereo not drawn) [Example 9, (3-(2-(3,4-dimethoxyphenyl)-3-isopropyl-1H-indol-5-yl)phenyl)(hexahydropyrrolo[3,4-c]pyrrol-2(1H)-yl)methanone] | 108 nM | 744 nM | 4.1 nM
CCc1c(-c2ccc(OC)c(OC)c2)[nH]c2ccc(-c3cccnc3)cc12 [Example 466, 2-(3,4-dimethoxyphenyl)-3-ethyl-5-(pyridin-3-yl)-1H-indole] | 3880 nM | > 50000 nM | 368 nM
Cc1cc(-c2[nH]c3ccc(-c4nnc([C@H]5CCNC5)o4)cc3c2C(C)C)ccn1 [Example 146, (S)-2-(3-isopropyl-2-(2-methylpyridin-4-yl)-1H-indol-5-yl)-5-(pyrrolidin-3-yl)-1,3,4-oxadiazole] | 15 nM | 651 nM | 3 nM
COCCN(CCOC)Cc1nnc(-c2ccc3[nH]c(-c4ccc(OC)c(OC)c4)c(C(C)C)c3c2)o1 [Example 118, N-((5-(2-(3,4-dimethoxyphenyl)-3-isopropyl-1H-indol-5-yl)-1,3,4-oxadiazol-2-yl)methyl)-2-methoxy-N-(2-methoxyethyl)ethan-1-amine] | 227 nM | 18600 nM | 362 nM
COc1ccc(-c2[nH]c3ccc(-c4nnc(C)o4)cc3c2C(C)C)cc1OC [Example 63, 2-(2-(3,4-dimethoxyphenyl)-3-isopropyl-1H-indol-5-yl)-5-methyl-1,3,4-oxadiazole] | 483 nM | > 50000 nM | 235 nM
COc1ccc(-c2[nH]c3ccc(-c4nnc(CN5CCOCC5)o4)cc3c2C(C)C)cc1OC [Example 115, 4-((5-(2-(3,4-dimethoxyphenyl)-3-isopropyl-1H-indol-5-yl)-1,3,4-oxadiazol-2-yl)methyl)morpholine] | 579 nM | > 50000 nM | 202 nM
Cc1cc(-c2[nH]c3ccc(-c4nnc(C5CCCN(C(C)C)C5)[nH]4)cc3c2C(C)C)cc(C)n1 (stereo not drawn) [Example 340, 2-(2,6-dimethylpyridin-4-yl)-3-isopropyl-5-(5-(1-isopropylpiperidin-3-yl)-4H-1,2,4-triazol-3-yl)-1H-indole] | 4 nM | 262 nM | 3.6 nM
COc1ccc(-c2[nH]c3ccc(-c4ccc(OCCN5CCCC5)cc4)cc3c2C(C)C)cc1OC [Example 412, 2-(3,4-dimethoxyphenyl)-3-isopropyl-5-(4-(2-(pyrrolidin-1-yl)ethoxy)phenyl)-1H-indole] | 34 nM | > 50000 nM | 26 nM
COc1ccc(-c2[nH]c3ccc(-c4nnc(C(=O)N5CCN(c6cnccn6)CC5)o4)cc3c2C(C)C)cc1OC [Example 97, (5-(2-(3,4-dimethoxyphenyl)-3-isopropyl-1H-indol-5-yl)-1,3,4-oxadiazol-2-yl)(4-(pyrazin-2-yl)piperazin-1-yl)methanone] | 936 nM | > 50000 nM | 239 nM

Next, values leading:

IC50 [1] | IC50 [2] | IC50 [3] | Compound
24 nM | 1230 nM | 1.8 nM | Cc1cc(-c2[nH]c3ccc(-c4nnc(C5CCCN(C)C5)o4)cc3c2C(C)C)ccn1 (stereo not drawn) [Example 159, 2-(3-isopropyl-2-(2-methylpyridin-4-yl)-1H-indol-5-yl)-5-(1-methylpiperidin-3-yl)-1,3,4-oxadiazole]
1000 nM | 2880 nM | 213 nM | Cc1cc(-c2[nH]c3ccc(-c4nc(C)cs4)cc3c2C(C)C)ccn1 [Example 192, 2-(3-isopropyl-2-(2-methylpyridin-4-yl)-1H-indol-5-yl)-4-methylthiazole]
980 nM | 2790 nM | 6 nM | Cc1cc(-c2[nH]c3ccc(-c4nnc(C5CCCC(N)C5)o4)cc3c2C(C)C)ccn1 (stereo not drawn) [Example 179, 3-(5-(3-isopropyl-2-(2-methylpyridin-4-yl)-1H-indol-5-yl)-1,3,4-oxadiazol-2-yl)cyclohexan-1-amine]
23 nM | 303 nM | 13 nM | Cc1cc(-c2[nH]c3ccc(-c4ccnc(N5CCN(C(C)C)CC5)c4)cc3c2C(C)C)cc(C)n1 [Example 326, 2-(2,6-dimethylpyridin-4-yl)-3-isopropyl-5-(2-(4-isopropylpiperazin-1-yl)pyridin-4-yl)-1H-indole]
44 nM | 551 nM | 2.5 nM | Cc1cc(-c2[nH]c3ccc(-c4nnc(C5CCCN(C(C)C)C5)o4)cc3c2C(C)C)ccn1 (stereo not drawn) [Example 292, 2-(3-isopropyl-2-(2-methylpyridin-4-yl)-1H-indol-5-yl)-5-(1-isopropylpiperidin-3-yl)-1,3,4-oxadiazole]
84 nM | 5540 nM | 6.4 nM | Cc1cc(-c2[nH]c3ccc(-c4ccc(NC(C)C)nc4)cc3c2C(C)C)ccn1 [Example 247, N-isopropyl-5-(3-isopropyl-2-(2-methylpyridin-4-yl)-1H-indol-5-yl)pyridin-2-amine]
138 nM | 1710 nM | 45 nM | COc1ccc(-c2[nH]c3ccc(-c4nnc(C5CCN(Cc6ccccc6)CC5)[nH]4)cc3c2C(C)C)cc1OC [Example 106, 5-(5-(1-benzylpiperidin-4-yl)-4H-1,2,4-triazol-3-yl)-2-(3,4-dimethoxyphenyl)-3-isopropyl-1H-indole]
7.7 nM | > 50000 nM | 26 nM | Cc1cc(-c2[nH]c3ccc(-c4ccc(C(N)=O)nc4)cc3c2C(C)C)cc(C)n1 [Example 317, 5-(2-(2,6-dimethylpyridin-4-yl)-3-isopropyl-1H-indol-5-yl)picolinamide]
50 nM | 652 nM | 0.9 nM | Cc1cc(-c2[nH]c3ccc(-c4cc5c(s4)CN(C(C)C)CC5)cc3c2C(C)C)ccn1 [Example 228, 6-isopropyl-2-(3-isopropyl-2-(2-methylpyridin-4-yl)-1H-indol-5-yl)-4,5,6,7-tetrahydrothieno[2,3-c]pyridine]
32 nM | 243 nM | 5.5 nM | Cc1cc(-c2[nH]c3ccc(-c4nnc(C5CCCN(C(C)C)C5)[nH]4)cc3c2C(C)C)ccn1 (stereo not drawn) [Example 205, 3-isopropyl-5-(5-(1-isopropylpiperidin-3-yl)-4H-1,2,4-triazol-3-yl)-2-(2-methylpyridin-4-yl)-1H-indole]
2330 nM | > 50000 nM | 471 nM | CC(C)c1c(-c2ccnc3[nH]ncc23)[nH]c2ccc(-c3nnc(CN4CCOCC4)o3)cc12 [Example 152, 4-((5-(3-isopropyl-2-(1H-pyrazolo[3,4-b]pyridin-4-yl)-1H-indol-5-yl)-1,3,4-oxadiazol-2-yl)methyl)morpholine]
121 nM | 2780 nM | 42 nM | COc1ccc(-c2[nH]c3ccc(-c4cccc(C(=O)N[C@H]5CC[C@H](N)CC5)c4)cc3c2C(C)C)cc1OC [Example 6]
1560 nM | > 50000 nM | 464 nM | COc1ccc(-c2[nH]c3ccc(-c4ccc(N5CCC(c6ccncc6)CC5)cc4)cc3c2C(C)C)cc1OC [Example 405, 2-(3,4-dimethoxyphenyl)-3-isopropyl-5-(4-(4-(pyridin-4-yl)piperidin-1-yl)phenyl)-1H-indole]
13 nM | 183 nM | 8.5 nM | Cc1cc(-c2[nH]c3ccc(-c4ccnc(C5CCN(C(C)C)CC5)c4)cc3c2C(C)C)cc(C)n1 [Example 345, 2-(2,6-dimethylpyridin-4-yl)-3-isopropyl-5-(2-(1-isopropylpiperidin-4-yl)pyridin-4-yl)-1H-indole]
84 nM | 7590 nM | 3.3 nM | Cc1cc(-c2[nH]c3ccc(-c4nnc(C5CCN(CC(=O)N(C)C)CC5)[nH]4)cc3c2C(C)C)ccn1 [Example 185, 2-(4-(5-(3-isopropyl-2-(2-methylpyridin-4-yl)-1H-indol-5-yl)-4H-1,2,4-triazol-3-yl)piperidin-1-yl)-N,N-dimethylacetamide]
